We go through five compounds from the NIST ThermoML archive (doi:10.1021/je0342522).

For series [1] the following is noted: Liquid.
A short description of series [2]: excess molar enthalpy (molar enthalpy of mixing); xn = mol fraction of the nth substance listed. The conditions noted are these: 323.15 K, 4100 kPa, Liquid, Flow calorimetry.

Numbers after ± are expanded uncertainties.

The vapor or sublimation pressure is the equilibrium pressure above the liquid or solid. For the compound `CC(=O)c1ccccc1` [acetophenone], the “vapor or sublimation pressure” value in series [1] (323.27 K) is on record as 0.34 ± 0.042 kPa.

For `C=CC` [propene] + CC(=O)c1ccccc1, the excess molar enthalpy in series [2] (x1 = 0.0702) stood at 0.0129 ± 0.000478 kcal/mol; in series [2] (x1 = 0.1375), 0.0251 ± 0.000717 kcal/mol; in series [2] (x1 = 0.202) it was 0.0354 ± 0.000717 kcal/mol; in series [2] (x1 = 0.264), 0.0449 ± 0.000956 kcal/mol; in series [2] (x1 = 0.3235), 0.0509 ± 0.0012 kcal/mol; in series [2] (x1 = 0.4086) it was 0.0574 ± 0.0012 kcal/mol. The excess molar enthalpy in series [2] (x1 = 0.4889) came out at 0.0598 ± 0.00143 kcal/mol; in series [2] (x1 = 0.5893), 0.0588 ± 0.00143 kcal/mol; in series [2] (x1 = 0.6828), 0.0521 ± 0.0012 kcal/mol; in series [2] (x1 = 0.7487), 0.044 ± 0.000956 kcal/mol; in series [2] (x1 = 0.8115), 0.0339 ± 0.000717 kcal/mol; in series [2] (x1 = 0.8516), 0.027 ± 0.000717 kcal/mol. Further, the figures for the excess molar enthalpy in series [2] (x1 = 0.8905), in series [2] (x1 = 0.9281) and in series [2] (x1 = 0.9646) were 0.0196 ± 0.000478 kcal/mol, 0.0124 ± 0.000478 kcal/mol and 0.00598 ± 0.000239 kcal/mol, respectively.

Take `O` [water]: the “vapor or sublimation pressure” value in series [1] (333.15 K) was found to be 19.93 ± 0.17 kPa; in series [1] (353.15 K) it was 47.44 ± 0.35 kPa.

For `C=CC` [propene], in series [1] (323.27 K), the “vapor or sublimation pressure” value is 2058.9 ± 14 kPa.

For the compound `OCCO` [1,2-ethanediol], the “vapor or sublimation pressure” value was 0.22 ± 0.04 kPa in series [1] (333.15 K) and 0.77 ± 0.05 kPa in series [1] (353.15 K).
